Patent EP0151577B1 (priority 1983, dated 1984)

What was measured:
souris [1] = assay: Pentobarbital sleeping time; assay type: in vivo
Description: Les mesures ont été faites a 15, 30 et 60 minutes après I'administration par voie intrapéritonéale (i.p.) a des souris.

[2] = In vivo metabolism of radioactive compounds, hamster plasma; settings: après 24 heures, figure 2
From the text: La mesure de la radioactivite des diverses fractions isolées du sang des hamsters traités permet de caractériser les metabolites, lesquels sont ainsi isolés et identifies par électrophorèse. Les metabolites acides HIAA et IAA sont séparés ensemble.
On a porté le temps en abscisses (exprimé en heures) et en ordonnées le pourcentage du compose caractérisé dans le plasma.

souris [3] = assay: Tremor score in mice pretreated with a MAO inhibitor (Harmaline); assay type: in vivo; settings: for Score total (tremblements): Harmaline pretreatment, 5 souris
Description: Les conditions expérimentales étaient les suivantes:
Chez des souris prétraitées par un inhibiteur de la MAO (Harmaline 25 mg/kg/ P.O.), I'injection de 5HTP (1 heure après l'IMAO) entraîne l'apparition de tremblements plus ou moins généralisés, accompagnés ou non d'hyperactivité motrice et qui sont dus a I'accumulation de sérotonine non dégradée au niveau des récepteurs post-synaptiques cérébraux. On peut établir pour chaque souris une cotation chiffrée suivant l'intensité des symptômes observes au cours du temps (cotation toutes les 5 min. entre la 5ème et la 45ème min. après I'injection de 5 HTP puis toutes les 15 min. jusqu'à la 75ème min.).
On additionne en une score total tous les chiffres obtenus aux différents temps sur des lots de 5 ou 10 souris.
Les actions du 5 HTP ont été comparées a celles du DF-5HTP.

M. Leprae = assay: Multiplication of M. leprae in mouse foot pads; assay type: in vivo, Mycobacterium leprae; settings: 20 mg/kg par voie orale, daily from inoculation
Description: Le tableau 7 contient les résultats d'essai concernant l'activité du DF-5HTP sur les M. leprae sur les pattes de souris. Le protocole experimental était le suivant:
MESTER, L., and BALAKRISHNAN, S., Desoxyfructo-serotonin: First Human Metabolite with Antileprosy Activity. Acta Lepr. N°83, 21, 1981.
La dose de DF-5HTP était de 0,5 mg par 5 g de nourriture et par souris. Cette dose était administrée tous les jours a partir de la date d'inoculation. Les essais ont porté sur un lot de 24 souris.
Protocole: Sur la patte de chaque souris on a inoculé 5 x 10^6 M.leprae montrant un index morphologique (I. M.) = 2 %. Les chiffres suivis par X indiquent la multiplication de M. leprae initialement inoculé. (Pour la méthode utilisée voir MESTER, L., and BALAKRISHNAN, S., Desoxyfructo-serotonin: First Human Metabolite with Antileprosy Activity, Acta Lepr. N° 83, 21,1981.

[4] = system: 5-HT (dans tout le cerveau); assay: Amount of serotonin (5-HT) in whole brain, spectrophotofluorometric; assay type: in vivo, souris
From the text: Les quantités de sérotonine ont été estimees par une méthode spectrophotofluorométrique, telle que décrite par Solomon et al. Biochem. Pharmacology 14, 831 (1965). Les résultats de ces essais sont rassemblés dans le Tableau 10 ci-après.
• * Chaque valeur représente la moyenne de quatre animaux d'experience (souris) • ** La concentration de 5-HT est exprimée par gramme de tissu frais (cerveau).

[5] = Acute toxicity in the mouse, DL50 i.v. (Behrens-Karber); settings: in vivo, iv, souris, survivors checked 15 days after administration, read-out: DL 50 i.v.
From the text: D'autres études pharmacologiques ont été entreprises, en particulier pour apprécier la toxicite aigue chez la souris. Les divers produits étudiés sont administrés a doses croissantes en progression arithmetique a des lots de 5 souris femelles SWISS, EOPS, NMRI/Han pesant 23 a 24 g.
Les produits sont solubilises dans I'eau distillée. Les DL 50 sont calculées par la méthode de BEHRENS (B.) et KARBER (C.). Le nombre d'animaux survivants dans les differents lots est vérifié 15 jours après I'administration des produits. La toxicité aigue (DL 50) exprimée en g/kg est supérieure a 5, avec la voie d'administration i.v. pour le DF-5HTP un produit représentatif selon l'invention.

[6] = Solubility in water and organic solvents; assay type: physicochemical
From the text: II est insoluble dans le benzene, l'acetate d'ethyle et le chloroforme.

[7] = system: réponse à l'obstruction de la carotide; assay: Cardiovascular activity: response to carotid occlusion (CO); assay type: in vivo
From the text: (§1) Le protocole experimental était celui décrit dans "Sugar Derivatives of Indolamines. part V: Cardiovascular Effects and "Anti-stress" Activity of Desoxyfructose Derivative of Serotonin and 5-Metho-xy- tryptamin", L. Mester, M. Mester, K.P. Bhargava, C. Labrid, G. Dureng and M. Cheucle, THROMBOSIS […], 15,245,1979.

souris [8] = assay: General pharmacological profile: spontaneous motor activity; assay type: in vivo; settings: souris
From the text: Activite motrice spontanée: MODIGH, K., Central and peripheral effects of 5-hydroxytryptophan on motor activity in mice. Psychopharmacologia (Berlin), 23, 48, 1972. Cadence respiratoire: […], S., and VALZELLI, L. Serotonin and cardiovascular system, Chapter 9, in "Serotonin", Elsevier Publ. Co. Amsterdam 1965.

Rythme cardiaque = assay: Cardiovascular activity: heart rate; assay type: in vivo
From the text: as §1

[9] = system: cellules des neuroblastomes; assay: Inhibition of serotonin incorporation into neuroblastoma cells in vitro; assay type: cell-based; settings: 0°C
[10] = 10 mg par voie cérébroventriculaire

Which results are given for O=C(O)C(Cc1c[nH]c2ccc(O)cc12)NCC1(O)OCC(O)C(O)C1O (stereo not shown) [DF-5HTP, N-1-desoxyfructo-5-hydroxytryptophane]?
Temps de sommeil au pentobarbital % du témoin (témoin =100) (souris [1]; 100 mg/kg (ip), 15 min, Tableau 2): 140 % du témoin; Temps de sommeil au pentobarbital % du témoin (témoin =100) (souris [1]; 100 mg/kg (ip), 30 min): 114 % du témoin; Temps de sommeil au pentobarbital % du témoin (témoin =100) (souris [1]; 100 mg/kg (ip), 60 min): 103 % du témoin; Temps de sommeil au pentobarbital % du témoin (témoin =100) (souris [1]; 174 mg/kg (ip), 15 min): 93 % du témoin; Temps de sommeil au pentobarbital % du témoin (témoin =100) (souris [1]; 174 mg/kg (ip), 30 min): 95 % du témoin; Temps de sommeil au pentobarbital % du témoin (témoin =100) (souris [1]; 174 mg/kg (ip), 60 min): 91 % du témoin; taux du compose non transformé dans le plasma [2]: considerable; Score total (tremblements) (souris [3]; 150 mg/kg S.C. (mole for mole 75 mg/kg of 5 HTP)): 0; Score total (tremblements) (souris [3]; 500 mg/kg S.C.): 0; activité dans l'essai des tremblements (souris [3]; souris pretreated with Harmaline, overall statement): inactif; multiplication de M. Leprae sur les pattes des souris (M. Leprae; 4 mois après inoculation, témoins 33,8 X): 2,8 X; multiplication de M. Leprae sur les pattes des souris (M. Leprae; 6 mois après inoculation, témoins 38,4 X): Négatif; Quantités de 5-HT (dans tout le cerveau) ([4]; 100 mg/kg i.p., 15 min., Solution Saline 60,0, mean of 4 souris): 87,5; Quantités de 5-HT (dans tout le cerveau) ([4]; 174 mg/kg i.p., 15 min., Solution Saline 60,0, mean of 4 souris): 75,0; Quantités de 5-HT (dans tout le cerveau) ([4]; 174 mg/kg i.p., 30 min., par gramme de tissu frais, Solution Saline 107): 200,4; Quantités de 5-HT (dans tout le cerveau) ([4]; 174 mg/kg i.p., 60 min., par gramme de tissu frais, Solution Saline 100): 160,8; LD50 at 360 h [5]: > 5000 mg/kg; solubilité dans le benzene, l'acetate d'ethyle et le chloroforme ([6]; benzene, acetate d'ethyle, chloroforme): insoluble; soluble dans I'eau ([6]; eau): facilement soluble; REPONSE CO Durée [7, 10]: 120 min; REPONSE CO Mesure à [7, 10]: 30 min; REPONSE CO Pic [7, 10]: 30 min; REPONSE CO Durée ([7]; 100 mg par voie intraveineuse): 45 min; REPONSE CO Mesure à ([7]; 100 mg par voie intraveineuse): 1 min; REPONSE CO Pic ([7]; 100 mg par voie intraveineuse): 1 min; Activité motrice spontanée (souris [8]; 100 mg/kg (ip), Tableau 2): légère augmentation; Activité motrice spontanée (souris [8]; 174 mg/kg (ip)): augmentation; Rythme cardiaque Durée (min) (Rythme cardiaque; [10]): non mani-festée à 150; Rythme cardiaque Mesure à (Rythme cardiaque; [10]): 30 min; Rythme cardiaque Pic (Rythme cardiaque; [10]): 75 min; Rythme cardiaque Durée (Rythme cardiaque; 100 mg par voie intraveineuse): 45 min; Rythme cardiaque Mesure à (Rythme cardiaque; 100 mg par voie intraveineuse): 5 min; Rythme cardiaque Pic (Rythme cardiaque; 100 mg par voie intraveineuse): 10 min; % Inhibition à 0°C de l'incorporation de la sérotonine dans les cellules nerveuses [9]: 50%
